Residue numbers refer to the chain shown, from its start. Where two headings read alike, the source gives them in different places. Peptide text beside a SMILES is read from it. * marks the point of attachment. FITC = O=C1OC2(c3ccc(O)cc3Oc3cc(O)ccc32)c2ccc(NC(=S)*)cc21 Where only a bound is given, the exact number is not on record here.

What all share (assay type): binding
One experiment deals with T1, USP20 DUSP2 N805A (Homo sapiens, UniProt Q9Y2K6, N805A).
T1 construct: USP20_DUSP2; Q9Y2K6; DUSP2; 776; 894; 6xHis-GST (N, cleaved yes); made in house; host or cells: Escherichia coli BL21-Gold (DE3)
T1 sequence (Q9Y2K6 with tags, fused parts or gaps N805A): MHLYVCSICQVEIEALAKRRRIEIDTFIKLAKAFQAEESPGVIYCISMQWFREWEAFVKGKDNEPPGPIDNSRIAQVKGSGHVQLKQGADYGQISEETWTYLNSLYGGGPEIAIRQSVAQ
The experiment in a line: FP-monitored affinity measurements, USP20 DUSP2 single mutant. As to the method:
(§1) Proteins were expressed in Escherichia coli (E.coli) BL21-Gold (DE3) bacteria. The cDNAs encoding N-terminal 6-histidine-glutathione S-transferase tagged (6xHis-GST), 6xHis-tagged or GST-tagged protein domains in pETM33, pETM11, pGEX6P1 expression vectors respectively, were obtained from Genescript or kindly provided by MRC-PPU (Suppl. Data 1) The bacteria were transformed with the plasmid and grew at 37 °C in 2YT (5 g/L NaCl, 16 g/L tryptone and 10 g/L yeast extract) supplemented with Kanamycin (30 μg/mL) until reaching an OD600 of 0.7. Protein expression was induced with 0.3 mM isopropyl β-D-1 thiogalactopyranoside (IPTG) for 18 h at 18 °C while shaking. For zinc-finger domains, 50 μM of ZnSO4 was added during expression. […] For fluorescence polarization experiments, the proteins were not eluted from the beads, and the 6xHis-GST tag was cleaved overnight on GSH Sepharose beads at 4 °C while shaking with PreScission Protease in cleavage buffer (50 mM Tris pH 7.5, 150 mM NaCl, 1 mM DTT). […] The purity and size of the proteins were analyzed by SDS-PAGE electrophoresis.
(§2) The measurements were performed at room temperature in a non-binding black half area 96-well plate (Corning) with a total volume of 50 μL per well. […] The data were analyzed using GraphPad Prism version 9.2.0 for MacOS (GraphPad Software, San Diego, California USA, www.graphpad.com). […]

The next experiment concerns the target T2, USP20 DUSP2 K833E-K835E (Homo sapiens, UniProt Q9Y2K6, K833E/K835E).
T2 construct: USP20_DUSP2; Q9Y2K6; DUSP2; 776; 894; 6xHis-GST (N, cleaved yes); made in house; host or cells: Escherichia coli BL21-Gold (DE3)
The experiment in a line: FP-monitored affinity measurements, USP20 DUSP2 double mutant. As for the experimental part: as §1, §2

A further experiment addresses T3, USP33 DUSP2 N835A (Homo sapiens, UniProt Q8TEY7, N835A).
T3 construct: USP33_DUSP2; Q8TEY7; DUSP2; 806; 921; 6xHis-GST (N, cleaved yes); made in house; host or cells: Escherichia coli BL21-Gold (DE3)
T3 sequence (Q8TEY7 806-921 N835A): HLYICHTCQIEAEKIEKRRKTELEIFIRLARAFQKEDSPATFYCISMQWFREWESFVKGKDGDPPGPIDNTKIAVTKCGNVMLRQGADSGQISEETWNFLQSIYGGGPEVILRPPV
Nature of the experiment: FP-monitored affinity measurements, USP33 DUSP2 single mutant. The conditions noted are these: FP, FITC-labeled probe peptide, single mutant domain (Fig. 5F); technical triplicate; read-out: KD, USP33 DUSP2 N835A with FITC-labeled probe peptide. As to the method:
as §1, §2

The target of the next experiment is T4, USP33 DUSP2 K863E-K865E (Homo sapiens, UniProt Q8TEY7, K863E/K865E).
T4 construct: USP33_DUSP2; Q8TEY7; DUSP2; 806; 921; 6xHis-GST (N, cleaved yes); made in house; host or cells: Escherichia coli BL21-Gold (DE3)
T4 sequence (Q8TEY7 806-921 K863E/K865E): T3 sequence (Q8TEY7 806-921 N835A) with A30N, K58E, K60E
The experiment in a line: FP-monitored affinity measurements, USP33 DUSP2 double mutant. Particulars: FP, FITC-labeled probe peptide, double mutant domain (Fig. 5F); technical triplicate; read-out: KD, USP33 DUSP2 K863E-K865E with FITC-labeled probe peptide. As to the method: as §1, §2

The target of the next experiment is T5, USP11 DUSP-UBL domain (Homo sapiens, UniProt P51784).
T5 construct: USP11_UBL; P51784; UBL; 6xHis-GST (N, cleaved yes); made in house; host or cells: Escherichia coli BL21-Gold (DE3)
T5 sequence (P51784 67-288): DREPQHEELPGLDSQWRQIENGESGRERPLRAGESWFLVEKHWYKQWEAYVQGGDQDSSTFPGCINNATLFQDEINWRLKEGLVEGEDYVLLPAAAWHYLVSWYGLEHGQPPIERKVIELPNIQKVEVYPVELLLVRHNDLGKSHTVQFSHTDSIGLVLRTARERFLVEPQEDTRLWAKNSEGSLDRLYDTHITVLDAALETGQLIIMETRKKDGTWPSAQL
The experiment in a line: FP-based affinity measurements, USP11 DUSP-UBL. The conditions noted are these: USP11_DUSP_UBL; direct FP titration (saturation) of the FITC-labelled peptide; read-out: KD. As to the method: (§3) Proteins were expressed in Escherichia coli (E.coli) BL21-Gold (DE3) bacteria. The cDNAs encoding N-terminal 6-histidine-glutathione S-transferase tagged (6xHis-GST), 6xHis-tagged or GST-tagged protein domains in pETM33, pETM11, pGEX6P1 expression vectors respectively, were obtained from Genescript or kindly provided by MRC-PPU (Suppl. Data 1) The bacteria were transformed with the plasmid and grew at 37 °C in 2YT (5 g/L NaCl, 16 g/L tryptone and 10 g/L yeast extract) supplemented with Kanamycin (30 μg/mL) until reaching an OD600 of 0.7. Protein expression was induced with 0.3 mM isopropyl β-D-1 thiogalactopyranoside (IPTG) for 18 h at 18 °C while shaking. For zinc-finger domains, 50 μM of ZnSO4 was added during expression. The bacterial cultures were pelleted for 15 minutes at 4000 x g at 4 °C and stored at −20 °C until purification. The pellets were resuspended in lysis buffer (1× phosphate-buffered saline (PBS), 0.5 % Triton-X, 5 mM MgCl2, 10 μg/mL lysozyme, cOmplete^TM EDTA-free protease inhibitor cocktail (Roche), 10 μg/mL DNAseI) and incubated for 1 h shaking at 4 °C. […] The supernatant was incubated with glutathione (GSH) Sepharose (Cytiva) or Ni2+ Sepharose (Cytiva) for 1 h at 4 °C while shaking. The beads with the bound protein were washed with 1x PBS and eluted with 10 mM reduced glutathione in 50 mM Tris pH 8.0. For fluorescence polarization experiments, the proteins were not eluted from the beads, and the 6xHis-GST tag was cleaved overnight on GSH Sepharose beads at 4 °C while shaking with PreScission Protease in cleavage buffer (50 mM Tris pH 7.5, 150 mM NaCl, 1 mM DTT). The sample containing the cleaved domain was separated from the tag and protease and buffer-exchanged to 50 mM sodium phosphate buffer pH 7.4 with 1 mM DTT using a PD-10 desalting column (Cytiva). The purity and size of the proteins were analyzed by SDS-PAGE electrophoresis.
The measurements were performed at room temperature in a non-binding black half area 96-well plate (Corning) with a total volume of 50 μL per well. Peptides were obtained from GeneCust (France) with >95% purity. FITC-labeled peptides (N-terminally FITC-labeled without spacer and C-terminally amidated) were dissolved in dimethyl sulfoxide (DMSO), and unlabeled peptides (N-terminally acetylated and C-terminally amidated) were dissolved in 50 mM phosphate buffer pH 7.4. Saturation measurements were performed using a serial dilution of the protein domains in phosphate buffer (25 μL) and the addition of 10 nM FITC-labeled peptide (in phosphate buffer supplemented with 2 mM DTT) (25 μL). […] All measurements were performed in three technical replicates. The data were analyzed using GraphPad Prism version 9.2.0 for MacOS (GraphPad Software, San Diego, California USA, www.graphpad.com). […]

The next experiment addresses T6, USP20 DUSP2 domain (Homo sapiens, UniProt Q9Y2K6).
T6 construct: USP20_DUSP2; Q9Y2K6; DUSP2; 776; 894; 6xHis-GST (N, cleaved yes); made in house; host or cells: Escherichia coli BL21-Gold (DE3)
The experiment in a line: FP-monitored affinity measurements, USP20 DUSP2. Particulars: USP20_DUSP2; direct FP titration (saturation) of the FITC-labelled peptide; read-out: KD. As for the experimental part:
as §3
The measurements were performed at room temperature in a non-binding black half area 96-well plate (Corning) with a total volume of 50 μL per well. Peptides were obtained from GeneCust (France) with >95% purity. FITC-labeled peptides (N-terminally FITC-labeled without spacer and C-terminally amidated) were dissolved in dimethyl sulfoxide (DMSO), and unlabeled peptides (N-terminally acetylated and C-terminally amidated) were dissolved in 50 mM phosphate buffer pH 7.4. Saturation measurements were performed using a serial dilution of the protein domains in phosphate buffer (25 μL) and the addition of 10 nM FITC-labeled peptide (in phosphate buffer supplemented with 2 mM DTT) (25 μL). […] All measurements were performed in three technical replicates. The data were analyzed using GraphPad Prism version 9.2.0 for MacOS (GraphPad Software, San Diego, California USA, www.graphpad.com). The saturation curves were fitted to the quadratic equation, and the displacement curves were fitted to a sigmoidal dose-response equation as described previously.

T2 sequence (Q9Y2K6 with tags, fused parts or gaps K833E/K835E): as the sequence (Q9Y2K6 with tags, fused parts or gaps N805A) above, with A31N, K59E, K61E counted along it
T6 sequence (Q9Y2K6 with tags, fused parts or gaps): as the sequence (Q9Y2K6 with tags, fused parts or gaps N805A) above, with A31N counted along it

On to `CC[C@H](C)[C@H](NC(=O)[C@H](CC(N)=O)NC(=O)[C@H](Cc1c[nH]c2ccccc12)NC(=O)[C@H](C)NC(=O)[C@H](CC(C)C)NC(=O)[C@H](CC(=O)O)NC(=O)[C@H](CC(=O)O)NC(=O)[C@H](CC(=O)O)NC(=O)[C@H](CO)NC(=S)Nc1ccc2c(c1)C(=O)OC21c2ccc(O)cc2Oc2cc(O)ccc21)C(=O)N[C@@H](C)C(=O)N1CCC[C@H]1C(=O)N[C@@H](CCC(N)=O)C(=O)NCC(=O)N[C@@H](CC(C)C)C(=O)N[C@@H](CCC(N)=O)C(N)=O` [FITC-GPR137B348-362] ({FITC}-SDDDLAWNIAPQGLQ-NH2), for which the Kd on USP20 DUSP2 N805A (FP, FITC-labeled probe peptide, single mutant domain (Fig. 5F), technical triplicate, read-out: KD, USP20 DUSP2 N805A with FITC-labeled probe peptide) is > 130 µM; at USP20 DUSP2 K833E-K835E (FP, FITC-labeled probe peptide, double mutant domain (Fig. 5F), technical triplicate, read-out: KD, USP20 DUSP2 K833E-K835E with FITC-labeled probe peptide), > 290 µM.
Turning to `CSCC[C@H](NC(=S)Nc1ccc2c(c1)C(=O)OC21c2ccc(O)cc2Oc2cc(O)ccc21)C(=O)N[C@@H](CC(=O)O)C(=O)N[C@@H](CC(=O)O)C(=O)N[C@@H](CC(=O)O)C(=O)N[C@@H](Cc1ccccc1)C(=O)N[C@@H](CCC(N)=O)C(=O)N[C@@H](CC(C)C)C(=O)N[C@@H](CCCNC(=N)N)C(=O)N[C@@H](CO)C(=O)N[C@@H](Cc1ccccc1)C(=O)N[C@@H](CC(=O)O)C(=O)N[C@@H](CCC(N)=O)C(=O)N[C@@H](CC(C)C)C(=O)N[C@@H](CO)C(N)=O` [FITC-HIF1A568-581] ({FITC}-MDDDFQLRSFDQLS-NH2), the Kd at USP33 DUSP2 N835A and at USP33 DUSP2 K863E-K865E was > 300 µM throughout.
On to `CC[C@H](C)[C@H](NC(=O)[C@H](Cc1c[nH]c2ccccc12)NC(=O)[C@H](CC(=O)O)NC(=O)[C@@H]1CCCN1C(=O)[C@H](Cc1ccc(O)cc1)NC(=O)[C@@H](NC(=O)[C@@H](NC(=O)[C@H](C)NC(=O)[C@H](CO)NC(=S)Nc1ccc2c(c1)C(=O)OC21c2ccc(O)cc2Oc2cc(O)ccc21)C(C)C)[C@@H](C)O)C(=O)NCC(=O)N[C@@H](CCC(N)=O)C(=O)N[C@@H](CO)C(=O)N[C@@H](Cc1ccc(O)cc1)C(=O)N[C@@H](CO)C(=O)N[C@@H](CCC(=O)O)C(=O)N[C@H](C(N)=O)C(C)C` [FITC-ORAI1] ({FITC}-SAVTYPDWIGQSYSEV-NH2), for which the Kd on USP11 DUSP-UBL domain was ~294 µM.
Take `CC[C@H](C)[C@H](NC(=O)[C@H](CC(N)=O)NC(=O)[C@H](Cc1c[nH]c2ccccc12)NC(=O)[C@H](C)NC(=O)[C@H](CC(C)C)NC(=O)[C@H](CC(=O)O)NC(=O)[C@H](CC(=O)O)NC(=O)[C@H](CC(=O)O)NC(=O)[C@H](CO)NC(=S)Nc1ccc2c(c1)C(=O)OC21c2ccc(O)cc2Oc2cc(O)ccc21)C(=O)N[C@@H](C)C(=O)N1CCC[C@H]1C(=O)N[C@@H](CCC(N)=O)C(=O)NCC(=O)N[C@@H](CC(C)C)C(=O)N[C@@H](CCC(N)=O)C(N)=O` [FITC_GPR137B] ({FITC}-SDDDLAWNIAPQGLQ-NH2): the Kd was 5.14 µM at USP20 DUSP2 domain; ~140 µM at USP20 DUSP2 N805A (USP20_DUSP2_N805A, direct FP titration (saturation) of the FITC-labelled peptide, read-out: KD); ~293 µM at USP20 DUSP2 K833E-K835E (USP20_DUSP2_K833E/K835E, direct FP titration (saturation) of the FITC-labelled peptide, read-out: KD).

Broadly, the Kd is the concentration at which binding is half-saturated.
